Experimental data reported in patent US11178870B2 (priority 2017, dated 2021).

Experiments:
[1] = system: Colletotrichum orbiculare; assay: whole plant or invertebrate; details: in Cucumis sativus, read-out: control value, Test H (anthracnose on cucumber)
Method: Seeds of a test plant (cucumber variety: Sagami Hanjiro) were planted and cultivated until the first leaf appeared. In the test, the compounds of the present invention were dissolved into a dimethyl sulfoxide-methanol mixture solution (volume ratio: 9/1), and the resultant solutions were diluted with well water to a concentration of 250 ppm. The thus-obtained dilutions were sprayed to the test plant (2.5 ml/pot). After the dilutions dried, a conidial suspension (2-4×10^5 conidia/ml) of Colletotrichum orbiculare was inoculated to the plant by spraying. After the inoculation, the plant was kept in a mist chamber at room temperature of 20 to 23° C. for about 24 hours to promote the onset of disease. The disease development was investigated 6 to 10 days after the inoculation, and the effectiveness of the dilutions was evaluated.
Disease development in Test Example described above was evaluated in increments of 0.05 by setting 0 as no incidence of disease and 3 as disease development in a plant of untreated group. In addition, control values were calculated using the following equation based on disease development.
Control value=100 {1−(n/3)}
n=Disease development of each treated groups

Plasmopara viticola = assay: Test Example G: Downy mildew on vine; format: in vivo; details: 250 ppm sprayed (2.5 ml/pot) before inoculation, assessed 7 to 10 days after inoculation, read-out: control value, Test G (downy mildew on vine)
Alternaia brassicicola = assay: Test Example C: Alternaria sooty spot on cabbage; format: in vivo; details: Brassica oleracea; Table 7, Test C; read-out: control value, Test C (Alternaria sooty spot on cabbage)
Phytophthora infestans = assay: whole plant or invertebrate; format: in vivo; details: in Solanum lycopersicum, read-out: control value, Test F (late blight on tomato)
Magnaporthe grisea = assay: whole plant or invertebrate; format: in vivo; details: Pyricularia oryzae, in Oryza sativa, read-out: control value, Test A (blast on rice)
Botrytis cinerea = assay: Test Example B: Gray mold on tomato; format: in vivo; details: Table 7, Test B, read-out: control value, Test B (gray mold on tomato)
Puccinia recondita = assay: Test Example E: Brown rust on wheat; format: in vivo; details: Table 7, Test E, read-out: control value, Test E (brown rust on wheat)
[2] = system: Blumeria graminis f. sp. hordei; assay: Test Example D: Powdery mildew on barley; format: in vivo; details: Table 7, Test D, read-out: control value, Test D (powdery mildew on barley)

SMILES	pest or weed control at 250 ppm [1]	pest or weed control at 250 ppm (Plasmopara viticola)	pest or weed control at 250 µg/mL (Alternaia brassicicola)	pest or weed control at 250 µg/mL (Phytophthora infestans)	pest or weed control at 250 µg/mL (Magnaporthe grisea)	pest or weed control at 250 µg/mL (Botrytis cinerea)	pest or weed control at 250 µg/mL (Puccinia recondita)	pest or weed control at 250 µg/mL [2]
C#Cc1cc(-n2cc(Cl)cn2)c(-c2c(F)cc(F)cc2F)n(CC)c1=O [compound 223, 5-(4-chloro-1H-pyrazol-1-yl)-1-ethyl-3-ethynyl-6-(2,4,6-trifluorophenyl)pyridin-2(1H)-one]	< 50%	> 50%	> 50%	< 50%	> 50%	< 50%	< 50%	< 50%
CCn1c(-c2c(F)cc(F)cc2F)c(-n2cc(Cl)cn2)cc(OC)c1=O [compound 225, 5-(4-chloro-1H-pyrazol-1-yl)-1-ethyl-3-methoxy-6-(2,4,6-trifluorophenyl)pyridin-2(1H)-one]	< 50%	> 50%	> 50%	< 50%	< 50%	< 50%	> 50%	> 50%
CCn1c(-c2ccc(F)cc2F)c(-n2cc(C)cn2)cc(Br)c1=O [compound 226, 3-bromo-6-(2,4-difluorophenyl)-1-ethyl-5-(4-methyl-1H-pyrazol-1-yl)pyridin-2(1H)-one]	> 50%	> 50%	> 50%	< 50%	> 50%	> 50%	> 50%	> 50%
CCn1c(-c2ccc(F)cc2F)c(-n2ncc(C)c2Cl)cc(Br)c1=O [compound 228, 3-bromo-5-(5-chloro-4-methyl-1H-pyrazol-1-yl)-6-(2,4-difluoro-phenyl)-1-ethylpyridin-2(1H)-one]	> 50%	< 50%	> 50%	< 50%	> 50%	> 50%	> 50%	> 50%
CCn1c(-c2c(F)cc(F)cc2F)c(-n2cc(Cl)cn2)cc(C=O)c1=O [compound 265, 5-(4-chloro-1H-pyrazol-1-yl)-1-ethyl-2-oxo-6-(2,4,6-trifluorophenyl)-1,2-dihydropyridin-3-carboaldehyde]	< 50%	< 50%	> 50%	< 50%	< 50%	< 50%	> 50%	> 50%
CCn1c(-c2c(F)cc(F)cc2F)c(-n2cc(Cl)cn2)cc(C(F)F)c1=O [compound 266, 5-(4-chloro-H-pyrazol-1-yl)-3-(difluoromethyl)-1-ethyl-6-(2,4,6-trifluorophenyl)pyridin-2(1H)-one]	> 50%	> 50%	> 50%	< 50%	> 50%	> 50%	> 50%	> 50%
